Experimental data: patent publication US20240299698A1, “PREVENTION AND TREATMENT OF POST-OPERATIVE COGNITIVE DYSFUNCTION (POCD)” (Noetix Pharma LLC, priority 2022, published 2024)

Key:
mouse model of (POCD) [1] = assay: Fear conditioning cued testing in laparotomy mouse model of POCD; format: in vivo, Male C57BI/6 mice; conditions: PSD3
Source text: To induce POCD, mice were anesthetized with isoflurane and maintained at a surgical plane of anesthesia (2-2.5%). The abdomen was shaved and cleaned/disinfected with both betadine and ethanol (70%). A 1.5 cm vertical incision was made along the midline of the abdomen, perforating the skin and the peritoneal cavity. A sterile blunt probe was inserted into the cavity, and the abdominal viscera and musculature were manipulated for five minutes. Abdominal muscles and skin were sutured, polysporin and topical lidocaine were applied to the incision site, and buprenorphine (0.1 mg/kg s.c.) was administered. Animals were placed into a clean, pre-warmed home cage for recovery and housed singly thereafter.
Fear conditioning is a commonly used test of associative learning where a […] stimulus is paired with an aversive unconditioned stimulus, resulting in a freezing response that can be subsequently quantified. Training occurred on the day prior to surgery, context testing on PSD1 (i.e., 2 days after training) and PSD3 (i.e., 4 days after training), and cued testing on PSD3 at a time point three hours after the final context test. For training and context testing, mice were placed in an operant chamber (Med Associates). For cued testing, mice were placed into a novel arena with novel external environment and scent.
Fear conditioning training was performed to generate an association between a neutral “conditional” stimulus (80 dB tone) with an aversive “unconditional” stimulus (0.4 mA shock). Before training, the system was tested to confirm proper operation of the shock and tone. During training, the testing environment was kept quiet and well controlled. Temperature and humidity levels were kept constant and the experimenter was not visible from the operant chamber, which was cleaned between animals. The training protocol was as follows: 1. Each mouse was habituated to the testing room for 20 minutes. 2. Video recording was initiated and the animal's ID card was recorded. 3. Each mouse was placed into the operant chamber and the training protocol was implemented as follows: a. 120 seconds; no stimuli (habituation to the chamber); b. 20 seconds, tone presentation (80 dB); c. 20 seconds, no stimuli (trace delay period); d. 2 seconds, foot shock (0.4 mA); e. 90 seconds, no stimuli (intertrial interval); f. repeat steps a-d followed by a final 30 second no stimuli period. 4. The mouse was returned to its home cage.
The purpose of cued testing is to evaluate cued memory for an aversive stimulus. […]
Cued testing was performed as follows: 1. […] Video recording was initiated and the animal's ID card was recorded. […]

[2] = Stability of pirfenidone dose preparation in vehicle; format: physicochemical; conditions: 0.9% saline
Procedure: • Vehicle: 0.9% saline • Working concentration: 66.67 mg/ml • Preparation: Add 1000 mg of pirfenidone to 15 mL of 0.9% saline • Stability in vehicle: Stable for a minimum of 8 days
• Vehicle: 0.9% saline • Working concentration: 33.33 mg/mL • Preparation: Add 12 mL of high dose pirfenidone to 12 mL of 0.9% saline • Stability in vehicle: Stable for a minimum of 8 days

mouse model of (POCD) [3] = assay: Behavioral test battery, summary of experimental results; format: in vivo, Male C57BI/6 mice
Source text: The project included experiments performed to investigate the therapeutic effects of administration of pirfenidone in a mouse model of (POCD). The model was developed during pilot work completed earlier in the study and was induced by performing a laparotomy with a 5-minute manipulation of abdominal viscera and musculature. Weights and physical condition of the animals were closely monitored throughout the study, with presurgical and daily post-surgical gavage of pirfenidone or saline administered. Behavioral testing was performed to evaluate alterations in learning and memory processes using fear conditioning, novel object recognition, and water maze paradigms. Following euthanasia on the eighth day post-surgery, hippocampal tissue was preserved and later evaluated for morphological characteristics related to microglial cell activation.
Behavioral testing was performed at various time points throughout the study as outlined in each separate section below and summarized in Table 2. All tests were recorded and analyzed by experimenters blinded to treatment. Data were obtained through a combination of experimenter scoring and use of AnyMaze™ Video Tracking System evaluation.

SMILES: Cc1ccc(=O)n(-c2ccccc2)c1 [pirfenidone, 5-methyl-1-phenyl-2-(1H)-pyridone]
- freezing during cued testing (overall measures) (mouse model of (POCD) [1]; Acute (400 mg/kg p.o. single dose) compared to Chronic pirfenidone and Disease controls, longer freeze times): increased mean performance
- freezing time, cued testing, post-tone period (mouse model of (POCD) [1]; Acute compared to Disease Control mice, longer freeze times): increased mean performance
- freezing during cued testing (overall measures) (mouse model of (POCD) [1]; Chronic (400 mg/kg initial; 200 mg/kg p.o. 1x/day)): performed more similarly to Disease Control
- freezing time, cued testing, post-tone period (mouse model of (POCD) [1]; Chronic vs Normal Controls, p=0.088): trend toward decreased freezing times
- Stability in vehicle ([2]; 33.33 mg/mL (low dose)): ≥ 8 days
- Stability in vehicle ([2]; 66.67 mg/ml (high dose)): ≥ 8 days
- behavioral testing responses (summary) (mouse model of (POCD) [3]; Acute pirfenidone treated animals): equivalent to or better than those seen in Normal Controls
- behavioral testing responses (summary) (mouse model of (POCD) [3]; Chronic pirfenidone administration): beneficial effects, particularly for recognition memory
- behavioral changes associated with memory in postoperative cognitive dysfunction (summary) (mouse model of (POCD) [3]; overall, pirfenidone treatment): protective effect
